Data published in patent US5037739A, “N-acetylmannosamine dehydrogenase, process for its production, method for quantitatively analyzing N-acetylmannosamine or sialic acid, and kit for the quantitative analysis” (Noda Institute for Scientific Research, priority 1986, dated 1991).
Like-named read-outs stand apart in the source and are kept apart here.

What was measured:
[1] = biological target: T1, N-AMDH (Flavobacterium sp., UniProt P22441); experiment: N-AMDH enzymatic activity in solutions containing metallic ions and inhibitors; type: biochemical, Flavobacterium sp. No. 141-8; conditions: for remaining activity at 2000 µM: read-out: Residual activity (%)
T1 construct: N-AMDH was accumulated in the bacterial cells; endogenous in cells; host or cells: Flavobacterium sp; No. 141-8 (natural producer isolated from soil); enzyme purified from the disrupted bacterial cells
Method: The table presented above illustrates the enzymatic activity of N-AMDH measured in solutions containing various metallic ions and inhibitors at a concentration of 2 mM. There is known no substance making a particular contribution to its activation and stabilization.
(§1) To 1.8 ml of 0.05M tris-hydrochloric acid buffer (pH 8.2) is added 0.1 ml of 60 mM NAD solution. After keeping the mixture at 37° C. for 10 minutes, 10 microliters of enzyme solution is added, and then 0.1 ml of 0.3M N-AM is added. By homogenizing the mixture, the reaction is started. The reaction mixture is immediately transferred into a light absorbance measurement cell (light path 1 cm) kept at 37° C., and absorbance is measured over a period of 5 minutes (if necessary, over a longer period of time) at intervals of one minute at a wavelength of 340 nm. A quantity of enzyme capable of forming 1 micromole of NADH in one minute is taken as one unit.

[2] = biological target: T1, N-AMDH; experiment: Action and substrate-specificity of N-AMDH (substrates and electron acceptors); type: biochemical, Flavobacterium sp. No. 141-8; conditions: for Action of N-AMDH upon the sugar as substrate: in the presence of NAD
Method: In the presence of water, N-acetylmannosaminolactone is spontaneously hydrolyzed to form N-acetylmannosaminic acid. Accordingly, the reaction is substantially irreversible.
as §1

[3] = pH stability and heat stability (inactivation conditions) of N-AMDH; type: physicochemical, Flavobacterium sp. No. 141-8
Method: The buffer solutions used there are potassium phosphate buffer, tris-hydrochloric acid buffer and glycine-sodium hydroxide buffer.
At temperatures exceeding 45° C., it rapidly loses its activity. When heat treated at 45° C. for 10 minutes, it is stable at a pH of 8.5-9.5, while it is particularly instable at a pH value of 7 or below.

[4] = Acrylamide gel isoelectric focusing of N-AMDH; type: physicochemical, Flavobacterium sp. No. 141-8
Source text: As measured by acrylamide gel isoelectric focusing, its isoelectric point is 4.9.

[5] = system: Flavobacterium sp. No. 141-8; experiment: Growth resistance of the producing strain (penicillin, sodium chloride); type: cell-based
Source text: (1) Penicillin resistance: Growth even at 100 units/ml.
(2) Sodium chloride resistance: No growth above 2%.

[6] = N-AMDH activity with metallic ion or inhibitor at 2 mM, None = 100
[7] = heat treated at 45° C. for 10 minutes

T1 sequence (P22441 2-271 limits assumed): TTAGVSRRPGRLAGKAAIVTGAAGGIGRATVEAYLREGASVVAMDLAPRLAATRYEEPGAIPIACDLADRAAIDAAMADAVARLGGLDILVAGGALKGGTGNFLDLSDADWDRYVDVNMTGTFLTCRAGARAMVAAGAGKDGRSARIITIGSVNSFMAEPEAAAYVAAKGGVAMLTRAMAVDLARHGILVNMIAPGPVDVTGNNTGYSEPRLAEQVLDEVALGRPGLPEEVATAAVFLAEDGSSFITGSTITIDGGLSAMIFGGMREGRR

CCCCCCCCCCCCOS(=O)(=O)O [SDS]
remaining activity at 2000 µM [1, 6]: 18%

c1cnc2c(c1)ccc1cccnc12 [o-Phenanthroline]
remaining activity at 2000 µM [1, 6]: 87%

CC(=O)N[C@@H]1C(O)O[C@H](CO)[C@@H](O)[C@@H]1O (stereo partly shown) [N-AM, N-acetylmannosamine]
Action of N-AMDH upon the sugar as substrate [2]: oxidizes N-AM into N-acetylmannoaminolactone

Nc1ncnc2c1ncn2[C@@H]1O[C@H](COP(=O)(O)O)[C@@H](O)[C@H]1O [5'-AMP]
remaining activity at 2000 µM [1, 6]: 76%

CC(=O)N[C@H]1C(O)O[C@H](CO)[C@H](O)[C@@H]1O (stereo partly shown) [N-acetylgalactosamine]
Action of N-AMDH upon the sugar as substrate [2]: hardly acts or does not act at all

N-acetylmannosamine dehydrogenase [N-AMDH]
Temperature up to which activity is kept stable on heat treatment ([3]; FIG. 4, heat treated for minutes): ≤ 45 °C | pH at which it is particularly instable when heat treated [3, 7]: ≤ 7 | pH at which it is stable when heat treated [3, 7]: 8.5-9.5 | Isoelectric point [4]: 4.9

CC(=O)N[C@H]1C(O)O[C@H](CO)[C@@H](O)[C@@H]1O (stereo partly shown) [N-acetylglucosamine]
Action of N-AMDH upon the sugar as substrate [2]: hardly acts or does not act at all

O=S(=O)([O-])[O-].[Ni+2] [NiSO4]
Residual activity (%) [1, 6]: 69%

NC(=O)CI [Iodoacetamide]
remaining activity at 2000 µM [1, 6]: 87%

[N-]=[N+]=[N-].[Na+] [NaN3]
Residual activity (%) [1, 6]: 83%

[Cl-].[Na+] [Sodium chloride]
Sodium chloride resistance: concentration above which there is no growth [5]: above 2%

O=C(O)CN(CCN(CC(=O)O)CC(=O)O)CC(=O)O [EDTA]
remaining activity at 2000 µM [1]: 89%

Oc1cccc2cccnc12 [8-Hydroxyquinoline]
Residual activity (%) [1]: 95%

NC(=O)c1ccc[n+]([C@@H]2O[C@H](COP(=O)([O-])OP(=O)(O)OC[C@H]3O[C@@H](n4cnc5c(N)ncnc54)[C@H](OP(=O)(O)O)[C@@H]3O)[C@@H](O)[C@H]2O)c1 [NADP, nicotinamide adenine dinucleotide phosphate]
Utilization as electron acceptor by N-AMDH [2]: hardly utilizes

O=C(O)c1cc[c]([Hg][Cl])cc1 [PCMB]
Residual activity (%) [1, 6]: 95%

O=S(=O)([O-])[O-].[Cu+2] [CuSO4]
Residual activity (%) [1, 6]: 79%

[Cl][Hg][Cl] [HgCl2]
Residual activity (%) [1, 6]: 6%

c1ccc(-c2ccccn2)nc1 [α,α'-Dipyridyl]
remaining activity at 2000 µM [1, 6]: 97%

O=C(CO)N[C@@H]1C(O)O[C@H](CO)[C@@H](O)[C@@H]1O (stereo partly shown) [N-glycolylmannosamine]
Action of N-AMDH upon the sugar as substrate [2]: acts upon N-glycolylmannosamine in the same manner as above

CC1(C)S[C@@H]2[C@H](NC(=O)Cc3ccccc3)C(=O)N2[C@H]1C(=O)O [Penicillin]
Penicillin resistance: concentration at which the strain still grows [5]: ≥ 100 units/ml

O=S(=O)([O-])[O-].[Zn+2] [ZnSO4]
Residual activity (%) [1, 6]: 71%

O=C1C(Cl)=CC(=Nc2ccc(O)cc2)C=C1Cl [2,6-dichlorophenol indophenol]
Utilization as electron acceptor by N-AMDH [2]: hardly utilizes
